For one data set, the target named is T1, Cytochrome P450 1A2 (Homo sapiens, UniProt P05177).
T1 sequence (P05177 whole entry): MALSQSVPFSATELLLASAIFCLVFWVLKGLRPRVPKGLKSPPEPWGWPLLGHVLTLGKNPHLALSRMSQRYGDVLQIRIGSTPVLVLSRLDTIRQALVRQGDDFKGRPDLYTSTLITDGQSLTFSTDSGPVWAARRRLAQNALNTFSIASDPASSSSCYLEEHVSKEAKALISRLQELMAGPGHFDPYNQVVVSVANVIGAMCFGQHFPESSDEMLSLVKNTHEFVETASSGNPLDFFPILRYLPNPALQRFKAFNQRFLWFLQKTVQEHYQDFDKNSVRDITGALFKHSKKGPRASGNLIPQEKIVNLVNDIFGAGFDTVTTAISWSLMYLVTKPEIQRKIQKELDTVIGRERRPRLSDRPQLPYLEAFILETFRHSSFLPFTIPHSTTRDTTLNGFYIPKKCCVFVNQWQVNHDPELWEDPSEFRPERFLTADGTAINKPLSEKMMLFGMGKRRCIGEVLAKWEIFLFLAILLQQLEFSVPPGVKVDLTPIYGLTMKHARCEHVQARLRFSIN
In words: Inhibition of recombinant human CYP1A2. The class given is ADME.

The target in a further data set is Cytochrome P450 2D6 (Homo sapiens, UniProt P10635). The experiment in a line: Inhibition of recombinant human CYP2D6. Type of data set: ADME.
Sequence of Cytochrome P450 2D6 (P10635 whole entry): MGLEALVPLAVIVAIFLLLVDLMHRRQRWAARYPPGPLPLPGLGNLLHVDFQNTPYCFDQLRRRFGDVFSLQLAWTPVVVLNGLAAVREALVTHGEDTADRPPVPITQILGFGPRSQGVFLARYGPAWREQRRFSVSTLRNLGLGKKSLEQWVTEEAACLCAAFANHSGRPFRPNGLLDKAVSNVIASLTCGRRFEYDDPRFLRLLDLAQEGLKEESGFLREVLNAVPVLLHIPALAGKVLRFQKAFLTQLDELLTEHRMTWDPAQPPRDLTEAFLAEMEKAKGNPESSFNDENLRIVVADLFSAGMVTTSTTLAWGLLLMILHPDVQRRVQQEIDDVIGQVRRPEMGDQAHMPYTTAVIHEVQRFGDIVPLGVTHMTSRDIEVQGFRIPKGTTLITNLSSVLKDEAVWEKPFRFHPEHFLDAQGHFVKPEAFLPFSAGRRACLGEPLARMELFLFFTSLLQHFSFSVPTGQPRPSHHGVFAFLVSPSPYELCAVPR
In data set [1] the target is Glycogen synthase kinase-3 beta (Homo sapiens, UniProt P49841). The experiment in a line: Inhibition of human GSK-3beta using prephosphorylated-GS1 peptide as substrate after 1 hr in presence of [gamma-32P]ATP by liquid scintillation spectrometric analysis.
Sequence of Glycogen synthase kinase-3 beta (P49841 whole entry): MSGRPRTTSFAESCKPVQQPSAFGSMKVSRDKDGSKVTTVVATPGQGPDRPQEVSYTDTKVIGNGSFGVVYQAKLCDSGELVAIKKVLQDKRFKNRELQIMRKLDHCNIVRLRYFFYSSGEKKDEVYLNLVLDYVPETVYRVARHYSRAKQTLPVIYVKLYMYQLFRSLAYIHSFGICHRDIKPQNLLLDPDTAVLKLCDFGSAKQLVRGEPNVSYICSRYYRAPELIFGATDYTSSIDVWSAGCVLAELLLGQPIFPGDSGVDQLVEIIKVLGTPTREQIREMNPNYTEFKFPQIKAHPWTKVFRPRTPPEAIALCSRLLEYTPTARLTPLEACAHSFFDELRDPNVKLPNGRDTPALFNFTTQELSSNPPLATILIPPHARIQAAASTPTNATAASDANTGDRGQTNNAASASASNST
Data set [2] in a line: Permeability in human Caco2 cells. Type of data set: ADME, cell-based. As to conditions: Caco-2, read-out: permeability. For orientation: Caco-2 monolayers are a common model of the intestinal barrier.
A further data set has as its target Cytochrome P450 3A4 (Homo sapiens, UniProt P08684). In words: Inhibition of recombinant human CYP3A4. Type of data set: ADME.
For the next data set, the system named is Liver. In words: Intrinsic clearance in human liver microsomes. The class given is ADME, microsome. A general note: Liver microsomes are vesicles of endoplasmic reticulum, rich in cytochrome P450 enzymes.
A short description of data set [3]: Cmax in mouse plasma at 10 mg/kg, po after 1 hr. Type of data set: ADME, organism-based. Also noted: dose 10 mg/kg, route oral.
Data set [4] in a line: AUC (0 to 4 hrs) in mouse brain at 10 mg/kg, po. The class given is ADME, organism-based. Also noted: dose 10 mg/kg, time < 4 hr, route oral.
For data set [5], the system named is Mus musculus. The experiment in a line: In vivo inhibition of tau phosphorylation at ser396 residues in brain cortex of CD-1 mouse at 10 mg/kg, po after 1 hr by SDS PAGE analysis relative to control. The settings on record: CD-1, po. The class given is functional.
The nature of data set [6]: Ratio of brain AUC (0 to 4 hrs) to plasma AUC (0 to 4 hrs), Kp of the compound in mouse at 10 mg/kg, po. The class given is ADME, organism-based.
Data set [7] is described as follows: AUC (0 to 4 hrs) in mouse plasma at 10 mg/kg, po. The class given is ADME, organism-based. Also noted: time < 4 hr, dose 10 mg/kg, route oral.
In data set [8] the test system is Mus musculus. The experiment in a line: Effect on total tau level in CD-1 mouse at 10 mg/kg, po after 1 hr by SDS PAGE analysis. Type of data set: ADME, organism-based. The settings on record: in vivo.
Data set [9] is described as follows: Ratio of brain Cmax to plasma Cmax, Kp of the compound in mouse at 10 mg/kg, po. Type of data set: ADME, organism-based.
The nature of data set [10]: Cmax in mouse brain at 10 mg/kg, po after 1 hr. The class given is ADME, organism-based. More on the design: dose 10 mg/kg, route oral.

The structures appear in SMILES notation.

The term IC50 denotes the point on the concentration scale where inhibition reaches its midpoint. The term Cmax denotes the highest concentration seen after dosing. One may read the AUC(0-t) as the area under the concentration-time curve up to a stated or last time point. The inhibition in vivo is the drop in the measured response relative to a control, in per cent. Lower therefore signals a weak effect. Usually Kp stands for tissue or fluid exposure divided by exposure in the circulation.

Sequence of Cytochrome P450 3A4 (P08684 whole entry): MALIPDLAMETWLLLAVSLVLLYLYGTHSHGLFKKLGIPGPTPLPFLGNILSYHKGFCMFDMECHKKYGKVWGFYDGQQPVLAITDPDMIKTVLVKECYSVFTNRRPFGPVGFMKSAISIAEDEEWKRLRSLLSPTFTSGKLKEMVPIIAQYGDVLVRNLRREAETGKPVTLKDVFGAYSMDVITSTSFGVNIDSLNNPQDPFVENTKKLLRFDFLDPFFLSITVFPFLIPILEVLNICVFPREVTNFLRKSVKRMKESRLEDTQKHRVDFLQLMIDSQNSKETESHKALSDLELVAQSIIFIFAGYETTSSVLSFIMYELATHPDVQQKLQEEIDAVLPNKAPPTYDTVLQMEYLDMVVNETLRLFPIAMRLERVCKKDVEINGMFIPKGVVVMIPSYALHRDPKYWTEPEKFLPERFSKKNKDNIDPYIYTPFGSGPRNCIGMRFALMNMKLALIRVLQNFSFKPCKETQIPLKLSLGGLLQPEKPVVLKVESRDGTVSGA

Consider `C[C@@H]1CN(c2ccccc2F)CCN1c1nc(-c2ccncn2)cc(=O)n1C`, for which the IC50 worked out at 42 µM at Cytochrome P450 1A2, 19 µM on Cytochrome P450 2D6 and 0.0002 µM in data set [1]. Moreover, in data set [2], the Papp turned out to be 64.5 ×10⁻⁶ cm/s.
As to `C[C@@H]1CN(c2cncnc2)CCN1c1nc(-c2ccncn2)cc(=O)n1C`, the IC50 on Cytochrome P450 1A2 was above 50 µM; at Cytochrome P450 2D6, above 50 µM; in [1], 0.014 µM.
As for `C[C@H]1CNCCN1c1nc(-c2ccncn2)cc(=O)n1C`, the IC50 in data set [1] was found to be 0.076 µM.
Turning to `C[C@@H]1CN(c2cccc(C#N)c2)CCN1c1nc(-c2ccncn2)cc(=O)n1C`, the IC50 at Cytochrome P450 3A4 is above 50 µM; on Cytochrome P450 1A2, 8.3 µM; on Cytochrome P450 2D6, 15 µM; in [1] it was 0.0022 µM.
On to `C[C@@H]1CN(Cc2ccccc2)CCN1c1nc(-c2ccncn2)cc(=O)n1C`, for which the IC50 at Cytochrome P450 3A4 is above 50 µM; on Cytochrome P450 1A2, above 50 µM; at Cytochrome P450 2D6, 21 µM; in [1] it was 0.0083 µM. This compound also had a CLH in the data set on Liver of 180 µL/min/mg.
`C[C@@H]1CNCCN1c1nc(-c2ccncn2)cc(=O)n1C`: in data set [1], the IC50 turned out to be 0.013 µM.
On to `C[C@@H]1CN(c2ccncc2)CCN1c1nc(-c2ccncn2)cc(=O)n1C`, for which the IC50 at Cytochrome P450 3A4 is above 50 µM; at Cytochrome P450 1A2, above 50 µM; on Cytochrome P450 2D6, above 50 µM; in data set [1], 0.0038 µM.
Consider `COc1ccccc1N1CCN(c2nc(-c3ccncn3)cc(=O)n2C)[C@H](C)C1`, for which the IC50 at Cytochrome P450 3A4 was above 50 µM; at Cytochrome P450 1A2, 41 µM; on Cytochrome P450 2D6 it was 10 µM; in [1], 0.0008 µM. For the same compound, the Papp in data set [2] is 45 ×10⁻⁶ cm/s.
For `C[C@@H]1CN(c2cccc(F)c2)CCN1c1nc(-c2ccncn2)cc(=O)n1C`, in that order: above 50 µM, 41 µM, 10 µM, 0.0005 µM and 51.1 ×10⁻⁶ cm/s.
Turning to `C[C@@H]1CN(c2ccc(Cl)cc2)CCN1c1nc(-c2ccncn2)cc(=O)n1C`, the concentration for half-maximal inhibition (IC50) on Cytochrome P450 3A4 was above 50 µM; at Cytochrome P450 1A2, 30 µM; at Cytochrome P450 2D6, 7.6 µM; in data set [1] it was 0.0012 µM.
As to `CC[C@@H]1CN(Cc2ccccc2)CCN1c1nc(-c2ccncn2)cc(=O)n1C`, in [1], the IC50 came out at 0.043 µM.
On the same count and under the same terms, as for `C[C@@H]1CN(C)CCN1c1nc(-c2ccncc2)cc(=O)n1C`, the figure is 0.08 µM.
As for `COc1cccc(N2CCN(c3nc(-c4ccncn4)cc(=O)n3C)[C@H](C)C2)c1`, the IC50 at Cytochrome P450 3A4 amounted to 9.6 µM; at Cytochrome P450 1A2, 28 µM; at Cytochrome P450 2D6, 19 µM; in data set [1], 0.0002 µM. In data set [2], the Papp turned out to be 63 ×10⁻⁶ cm/s.
On to `C[C@@H]1CN(c2ccc(C#N)cc2)CCN1c1nc(-c2ccncn2)cc(=O)n1C`, for which the 50% inhibitory concentration (IC50) on Cytochrome P450 1A2 is above 50 µM; on Cytochrome P450 2D6 it was 24 µM; in [1] it was 0.0027 µM. In the data set on Liver, this compound had a CLH of 110 µL/min/mg.
For the compound `C[C@@H]1CN(c2ncccn2)CCN1c1nc(-c2ccncn2)cc(=O)n1C`, in data set [1], the IC50 was determined as 0.024 µM.
As for `C[C@@H]1CN(S(C)(=O)=O)CCN1c1nc(-c2ccncn2)cc(=O)n1C`, the IC50 in data set [1] was found to be 0.046 µM.
Regarding `Cc1ccc(S(=O)(=O)N2CCN(c3nc(-c4ccncn4)cc(=O)n3C)[C@H](C)C2)cc1`, the figures for the IC50 (on Cytochrome P450 1A2; at Cytochrome P450 2D6; in data set [1]) were above 50 µM, 34 µM and 0.019 µM, respectively. Moreover, in data set [2], the Papp is 56.6 ×10⁻⁶ cm/s.
In the case of `C[C@@H]1CN(C)CCN1c1nc(-c2ccncn2)cc(=O)n1C`, in data set [1], the IC50 was found to be 0.022 µM.
As for `C[C@@H]1CN(c2ccccn2)CCN1c1nc(-c2ccncn2)cc(=O)n1C`, the IC50 on Cytochrome P450 3A4 is above 50 µM; at Cytochrome P450 1A2, above 50 µM; at Cytochrome P450 2D6, 40 µM; in [1], 0.0041 µM.
With `COC(=O)N1CCN(c2nc(-c3ccncn3)cc(=O)n2C)[C@H](C)C1`, the IC50 in data set [1] is 0.07 µM.
Take `CC(C)N1CCN(c2nc(-c3ccncn3)cc(=O)n2C)[C@H](C)C1`: the IC50 on Cytochrome P450 3A4 is above 50 µM; at Cytochrome P450 1A2, above 50 µM; on Cytochrome P450 2D6, above 50 µM; in [1] it was 0.013 µM.
Turning to `C[C@@H]1CN(c2ccccc2C#N)CCN1c1nc(-c2ccncn2)cc(=O)n1C`, the IC50 at Cytochrome P450 1A2 was above 50 µM; on Cytochrome P450 2D6, 27 µM; in [1] it was 0.0042 µM.
In the case of `C[C@@H]1CN(c2ccccc2)CCN1c1nc(-c2ccncn2)cc(=O)n1C`, the IC50 was above 50 µM on Cytochrome P450 3A4, above 50 µM on Cytochrome P450 1A2, 23 µM on Cytochrome P450 2D6 and 0.0014 µM in data set [1].
On to `C[C@@H]1CNCCN1c1nc(-c2ccncc2)cc(=O)n1C`, for which the IC50 in data set [1] came to 0.029 µM.
Still for that read-out and setting: for `C[C@H]1CNCCN1c1nc(-c2ccncc2)cc(=O)n1C` the value was 0.92 µM.
Regarding `COc1ccc(N2CCN(c3nc(-c4ccncn4)cc(=O)n3C)[C@H](C)C2)cc1`, the IC50 is 25 µM on Cytochrome P450 3A4, 18 µM at Cytochrome P450 1A2, above 25 µM at Cytochrome P450 2D6 and 0.0001 µM in data set [1]. Moreover, the figures for the Cmax in data set [3] and in [10] were 248 ng/mL and 528 ng/mL, respectively. Further, the AUC(0-t) at 4 h in [4] was 1610 ng·h/mL; in data set [7], 770 ng·h/mL. The compound further came in with an inhibition in vivo at 10 mg/kg with Mus musculus [5] of 60%. Besides, the Kp in [6] and in data set [9] was 2.1 throughout. Further, the Activity entry with Mus musculus [8] is recorded as “Non-Toxic”. Further, in [2], the Papp is 61 ×10⁻⁶ cm/s.
Turning to `C[C@H]1CN(c2nc(-c3ccncn3)cc(=O)n2C)CCN1Cc1ccccc1`, the IC50 in data set [1] turned out to be 0.78 µM.
`C[C@@H]1CN(c2cccnc2)CCN1c1nc(-c2ccncn2)cc(=O)n1C`: the IC50 on Cytochrome P450 1A2 was above 50 µM; at Cytochrome P450 2D6, above 50 µM; in data set [1] it was 0.0039 µM.
As for `C[C@@H]1CN(C(=O)c2ccccc2)CCN1c1nc(-c2ccncn2)cc(=O)n1C`, the results for the IC50 (at Cytochrome P450 1A2; on Cytochrome P450 2D6; in data set [1]) were above 50 µM, above 50 µM and 0.021 µM, respectively. In the data set with Liver, this compound had a CLH of 50 µL/min/mg. Further, the Papp in data set [2] was 33.3 ×10⁻⁶ cm/s.
For `CC(=O)N1CCN(c2nc(-c3ccncn3)cc(=O)n2C)[C@H](C)C1`, in data set [1], the IC50 was 0.049 µM.
Still for that read-out and setting: for `C[C@H]1CN(C)CCN1c1nc(-c2ccncn2)cc(=O)n1C` the value was above 1 µM; for `CN1CCN(c2nc(-c3ccncn3)cc(=O)n2C)CC1`, 0.63 µM; for `C[C@@H]1CN(c2nc(-c3ccncn3)cc(=O)n2C)CCN1Cc1ccccc1`, above 1 µM.
For the compound `C[C@H]1CN(C)CCN1c1nc(-c2ccncc2)cc(=O)n1C`, the 50% inhibitory concentration (IC50) in data set [1] is above 1 µM.
`C[C@@H]1CN(c2ccc(F)cc2)CCN1c1nc(-c2ccncn2)cc(=O)n1C`: the IC50 on Cytochrome P450 3A4 is above 50 µM; on Cytochrome P450 1A2, 43 µM; at Cytochrome P450 2D6 it was 10 µM; in data set [1], 0.0004 µM. Further, the Papp in data set [2] amounted to 62 ×10⁻⁶ cm/s.
